Measured values from the supplement of paper PMC10307832.

What was measured:
Experiment in all cases: relative viability (nuclei count vs DMSO), 5 days (fraction); higher = more cells survive
[1] = compound: Cc1ccc2nc(NCCN)c3ncc(C)n3c2c1 + Cc1nc(NC(=O)N2CCC[C@H]2C(N)=O)sc1-c1ccnc(C(C)(C)C(F)(F)F)c1 [Alpelisib] (partner 2 µM)
Procedure, shortened: (§1)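 Relative viability equals treated-well nuclei counts divided by vehicle-well nuclei counts. Counts came from 4× images of lung cancer cell lines grown in 1536-well plates for 5 days after pin-tool dosing on the day after seeding. Dosing used one drug alone or a fixed anchor-drug dose plus five library-drug doses (not always all listed) in √10 steps, and values are medians of duplicate plates.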

Salubrinal + Palbociclib = compound: O=C(/C=C/c1ccccc1)NC(NC(=S)Nc1cccc2cccnc12)C(Cl)(Cl)Cl [Salubrinal] + CC(=O)c1c(C)c2cnc(Nc3ccc(N4CCNCC4)cn3)nc2n(C2CCCC2)c1=O [Palbociclib] (partner 0.5 µM)
Procedure, shortened: as §1

Salubrinal + Bortezomib = compound: O=C(/C=C/c1ccccc1)NC(NC(=S)Nc1cccc2cccnc12)C(Cl)(Cl)Cl [Salubrinal] + CC(C)C[C@H](NC(=O)[C@H](Cc1ccccc1)NC(=O)c1cnccn1)B(O)O [Bortezomib] (partner 0.002 µM)
Procedure, shortened: as §1

Salubrinal + AZD7762 = compound: O=C(/C=C/c1ccccc1)NC(NC(=S)Nc1cccc2cccnc12)C(Cl)(Cl)Cl [Salubrinal] + NC(=O)Nc1cc(-c2cccc(F)c2)sc1C(=O)N[C@H]1CCCNC1 [AZD7762] (partner 0.2 µM)
Procedure, shortened: as §1

Row | Cell Line | relative viability ([1]; first compound 0.04 µM) | relative viability ([1]; first compound 0.1265 µM) | relative viability ([1]; first compound 0.4 µM) | relative viability ([1]; first compound 1.265 µM) | relative viability ([1]; first compound 4 µM) | relative viability (Salubrinal + Palbociclib; first compound 0.08 µM) | relative viability (Salubrinal + Palbociclib; first compound 0.253 µM) | relative viability (Salubrinal + Palbociclib; first compound 0.8 µM) | relative viability (Salubrinal + Palbociclib; first compound 2.53 µM) | relative viability (Salubrinal + Palbociclib; first compound 8 µM) | relative viability (Salubrinal + Bortezomib; first compound 0.08 µM) | relative viability (Salubrinal + Bortezomib; first compound 0.253 µM) | relative viability (Salubrinal + Bortezomib; first compound 0.8 µM) | relative viability (Salubrinal + Bortezomib; first compound 2.53 µM) | relative viability (Salubrinal + Bortezomib; first compound 8 µM) | relative viability (Salubrinal + AZD7762; first compound 0.08 µM) | relative viability (Salubrinal + AZD7762; first compound 0.253 µM) | relative viability (Salubrinal + AZD7762; first compound 0.8 µM) | relative viability (Salubrinal + AZD7762; first compound 2.53 µM) | relative viability (Salubrinal + AZD7762; first compound 8 µM)
1 | BEN | 1.06 | 0.787 | 1.09 | 0.807 | 1.19 | 0.453 | 0.444 | 0.484 | 0.457 | 0.463 | 0.716 | 0.721 | 0.979 | 0.941 | 0.909 | 0.642 | 0.727 | 0.802 | 0.712 | 0.72
2 | EMC-BAC-2 | 0.748 | 0.722 | 0.72 | 0.793 | 0.719 | 0.493 | 0.493 | 0.541 | 0.525 | 0.524 | 1.16 | 0.974 | 1.09 | 1.16 | 1.17 | 1.1 | 1.06 | 1.31 | 1.16 | 1.13
3 | NCI-H1793 | 0.707 | 0.677 | 0.637 | 0.654 | 0.693 | 0.366 | 0.37 | 0.323 | 0.284 | 0.287 | – | – | – | – | – | 0.676 | 0.407 | 0.505 | 0.366 | 0.276
4 | NCI-H1299 | 1.03 | 1.1 | 1.05 | 1.08 | 0.993 | – | – | – | – | – | 1.05 | 0.971 | 1.02 | 1.02 | 1.02 | – | – | – | – | –
5 | EBC-1 | 1.04 | 0.734 | 0.795 | 0.643 | 0.617 | – | – | – | – | – | 0.719 | 0.544 | 0.504 | 0.501 | 0.466 | – | – | – | – | –
6 | NCI-H358 | 0.844 | 0.835 | 0.902 | 0.952 | 0.626 | 0.154 | 0.137 | 0.123 | 0.109 | 0.138 | – | – | – | – | – | 0.583 | 0.461 | 0.538 | 0.561 | 0.459
7 | ChaGo-K-1 | – | – | – | – | – | 1.02 | 0.756 | 0.954 | 0.938 | 0.837 | 1.06 | 0.759 | 1.6 | 1.2 | 1.03 | 0.978 | 0.694 | 1 | 0.886 | 0.707
8 | COR-L23 | 0.904 | 0.663 | 0.916 | 0.809 | 0.495 | 0.356 | 0.31 | 0.312 | 0.331 | 0.208 | 1.16 | 0.786 | 1.12 | 0.998 | 0.809 | – | – | – | – | –
9 | COR-L 105 | 0.977 | 1.04 | 1.27 | 1.13 | 0.75 | 0.311 | 0.405 | 0.364 | 0.408 | 0.385 | 0.756 | 0.829 | 0.86 | 0.816 | 0.604 | – | – | – | – | –
10 | LK-2 | 1.07 | 1.08 | 0.935 | 1.05 | 0.864 | 0.708 | 0.781 | 0.683 | 0.597 | 0.788 | – | – | – | – | – | 0.39 | 0.486 | 0.489 | 0.441 | 0.358
11 | NCI-H596 | 0.56 | 0.46 | 0.446 | 0.491 | 0.452 | – | – | – | – | – | 1.1 | 0.807 | 1.01 | 1.13 | 1 | 1.05 | 1 | 1.07 | 1.16 | 0.865
